How the values were obtained:
[1] = Catalepsy test in rats (s.c., vertical wire mesh); settings: rat, maximum catalepsy within the first 6 hours
Protocol: Test compound is given s.c. in different doses. The rat (170-240 g) is placed on a vertical wire mesh (mesh diameter 12 mm). The rat is considered cataleptic if it remains immobile for more than 15 sec. The maximum number of rats showing catalepsy within the first 6 hours is recorded for each dose group. The results are recorded in fractions and an ED50 value is calculated by means of log-probit analysis. The results are shown in Table 1 (cf. Our Internat. Patent Application Publ. No. WO 92/00070).

[2] = Inhibition of nicotine withdrawal symptoms in mice (black/white test box); type: in vivo, mice (male BKW); settings: 0.1 mg/kg i.p.; FIG. 2
Protocol: (§1) The tests are tests for the effect of a substance on the abstinence symptoms induced by withdrawal of a drug of a substance of abuse in mice measured as the effect on some specific behavioral changes following to withdrawal of the drug or substance of abuse.
(§2) The test was conducted using an open-top experimental box (45*27*27 cm) two fifths of which was partitioned from the rest, painted black and illuminated with a dim red light (1×60 W, zero Lux). The remainder of the box was painted white and brightly illuminated (60 W, 400 Lux) with a white light source. The light sources were located 17 cm above the box and the base of the box was lined into 9 cm squares. Access between the two compartments was by means of a 7.5×7.5 cm opening located in floor level at the centre of the partition.
(§3) The mice were male BKW mice having weight of 25-30 g, housed in groups of 10 and given free acces to drink and food and kept on a dark/light cycle of 12 hours.
The test was carried out by taking the mice to a dimly illuminated room and then after 1 hour adaption to the new environment placing them in the centre of the white section of the test box. Behavioural changes were assed via remote video recording. The following behavioural changes were measured:
a) The time spent in the white and black section;
b) the number of explorative rearings in both the white and black section; […]

[3] = Inhibition of diazepam withdrawal symptoms in mice (black/white test box); type: in vivo, mice (male BKW); settings: 0.1 mg/kg i.p.; FIG. 1
Protocol: as §1, §2, §3
Diazepam (10 mg/kg) was given i.p. twice a day for 7 days and then withdrawn. […]
The test was carried out by taking the mice to a dimly illuminated room and then after 1 hour adaption to the new environment placing them in the centre of the white section of the test box. […] The following behavioural changes were measured: […]

Q: Which “Cataleptic activity ED50 (s.c.)” value [1] does the source give for O=C1NCCN1CCN1CC=C(c2cn(-c3ccc(F)cc3)c3ccc(C(F)(F)F)cc23)CC1 [Comp. A, 1-(4-Fluorophenyl)-3-[1-[2-(2-imidazolidinon-1-yl)ethyl]-1,2,3,6-tetrahydropyridin-4-yl]-5-trifluoromethyl-1H-indole, reference compound] here?
A: 0.49 µmol/kg

Q: For CN1CCN(CCN2CCC(c3cn(-c4ccc(F)cc4)c4ccc(Cl)cc34)CC2)C1=O [Comp. No 3, 5-chloro-1-(4-fluorophenyl)-3-[1-[2-(3-methyl-2-imidazolidinon-1-yl)ethyl]-4-piperidyl]-1H-indole], which “Cataleptic activity ED50 (s.c.)” value [1] is on record?
A: 31 µmol/kg

Q: Which “Cataleptic activity ED50 (s.c.)” value [1] does the source give for O=C1NCCN1CCN1CC=C(c2cn(-c3ccc(F)cc3)c3ccc(Cl)cc23)CC1 [Comp. B, 5-Chloro-1-(4-fluorophenyl)-3-[1-[2-(2-imidazolidinon-1-yl)ethyl]-1,2,3,6-tetrahydro-4-pyridyl]-1H-indole, reference compound] here?
A: 2.2 µmol/kg

Q: Which “Cataleptic activity ED50 (s.c.)” value [1] does the source give for O=C1CCCN1CCN1CCC(c2cn(-c3ccc(F)cc3)c3ccc(Cl)cc23)CC1 [Comp. No 4, 5-chloro-1-(4-fluorophenyl)-3-[1-[2-(2-pyrrolidinon-1-yl)ethyl]-4-piperidyl]-1H-indole] here?
A: 23 µmol/kg

Q: Which “Inhibiting effect on the withdrawal behavioural changes, nicotine” value [2] does the source give for O=C1NCCN1CCN1CCC(c2cn(-c3ccc(F)cc3)c3ccc(Cl)cc23)CC1 [Sertindole, 5-chloro-1-(4-fluorophenyl)-3-[1-[2-(2-imidazolidinon-1-yl)ethyl]-4-piperidyl]-1H-indole] here?
A: statistically significant inhibiting effect

Q: What about the “Relieving effect on the symptoms following withdrawal of nicotine” value [2] of the same compound?
A: marked relieving effect

Q: What about the “Inhibiting effect on the withdrawal behavioural changes, diazepam” value [3] of the same compound?
A: statistically significant inhibiting effect

Q: And the “Relieving effect on the symptoms following withdrawal of diazepam” value [3]?
A: marked relieving effect

— patent US5462948A, “Treatment of addiction to drugs and substances of abuse” (H. Lundbeck A/S, priority 1991, dated 1995)
